Results: ChEMBL document CHEMBL4610096, “Anti-inflammatory neo-Clerodane Diterpenoids from Ajuga pantantha” (J Nat Prod, 2020)
Active and inactive are the calls of the source. The calls are words filed in the database; no cut-off is given here.

What was measured:
BV-2 [1] = test: Antiinflammatory activity in mouse BV2 cells assessed as reduction in LPS-induced nitric oxide production by griess assay; format: functional, cell-based
BV-2 [2] = test: Cytotoxicity against mouse BV2 cells assessed as reduction in cell viability; format: cell-based
BV-2 [3] = test: Antiinflammatory activity in mouse BV2 cells assessed as reduction in LPS-induced iNOS expression at 10 to 100 uM preincubated for 30 mins followed by LPS stimulation and measured after 24 hrs by Western blot analysis; format: functional, cell-based
BV-2 [4] = test: Antiinflammatory activity in mouse BV2 cells assessed as reduction in LPS-induced COX2 expression at 10 to 100 uM preincubated for 30 mins followed by LPS stimulation and measured after 24 hrs by Western blot analysis; format: functional, cell-based

IC50 (BV-2 [1]) [µM] | SMILES | Activity (BV-2 [2]) | Activity (BV-2 [3]) | Activity (BV-2 [4])
2.4 | CSC(=N)N | – | – | –
45 | CC[C@H](C)C(=O)O[C@@H](C[C@@]1(C)[C@H](C)C[C@H](O)[C@]2(C)[C@@H]1CCC[C@H]2C(=O)OC)C1=CC(=O)OC1 | Non-Toxic | – | –

Further lines, the molecule ahead of its results:

SMILES | IC50 (BV-2 [1]) [µM] | Activity (BV-2 [2]) | Activity (BV-2 [3]) | Activity (BV-2 [4])
C/C=C(\C)C(=O)OC[C@@]12[C@H](CCC[C@]1(O)CCl)[C@@](C)(CCC1=CC(=O)OC1)[C@H](C)C[C@@H]2O | 20.2 | Non-Toxic | Active | Active
COC(=O)C/C(C=O)=C\C[C@@]1(C)[C@H](C)C[C@H](OC(C)=O)[C@]2(COC(C)=O)[C@@H]1[C@H](O)CC[C@]21CO1 | > 100 | Non-Toxic | – | –
C/C=C(\C)C(=O)O[C@@H](C[C@@]1(C)[C@H](C)C[C@H](O)[C@]2(C)[C@@H]1CCC[C@H]2C(=O)OC)C1=CC(=O)OC1 | 25.8 | Non-Toxic | Active | Active
